# Tested on: 695427-040-R-J1-PDC complex spheroid viability
# Assay: Anticancer human tumor 695427-040-R-J1-PDC patient-derived colon adenocarcinoma cell line growth inhibition [POLQ]
# Settings: for IC50: curve of first compound; for viability, T/C: stronger effect = lower value
# Protocol: Multicellular complex tumor spheroid response to Polymerase (POL) inhibitors (novobiocin, ART-558, RP6685) in combination with a variety of drugs and investigational agents in selected tumor cell lines
# The POL inhibitors (novobiocin, ART-558, and RP6685) were evaluated both individually and in combination with standard of care and investigational anticancer small molecules within a complex spheroid model of solid tumors. . Complex spheroids include a stromal component modeled by human endothelial cells (HUVEC) and fibroblasts modeled by human mesenchymal stem cells (MSCs). The concentration ranges selected for each drug and investigational agent were based upon clinically achievable concentrations if the clinical Cmax of the agent was known.
# Compounds. The drugs and investigational agents: novobiocin (NSC847541), ART-558 (NSC835418), RP-6685 (NSC848927), peposertib (NSC802822), ceralasertib (NSC780249), elimusertib (NSC800525), camonsertib (NSC841442), AZD-1390 (NSC803789), olaparib (NSC753686), talazoparib (NSC767125), rucaparib (NSC756644), sotorasib (NSC818433), MRTX-1133 (NSC836407), SN-38 (NSC673596), topotecan (NSC609699), epotoside (NSC141540), doxorubicin (NSC123127), gemcitabine (NSC613327), 5-fluorouracil (NSC19893), paclitaxel (NSC125973), vemurafenib (NSC761431), MSA-2 (NSC828583), SN-011 (NSC837082), adavosertib (NSC754352), prexasertib (NSC758257), carboplatin (NSC241240) and oxaliplatin (NSC266046), were obtained from the National Cancer Institute (NCI) Developmental Therapeutics Program Chemical Repository (21). The FDA-approved anticancer drug set is available from the Developmental Therapeutics Program at https://dtp.cancer.gov/organization/dscb/obtaining/. […] The stock solutions were prepared in dimethyl sulfoxide (DMSO, Sigma-Aldrich, St. Louis, MO, cat. D2650), except for the platinum compounds which were prepared in saline (Quality Biological, Gaithersburg, MD, cat. 114-055-101), at 800-fold the tested concentration and stored at -70 degrees C prior to their use. All drugs and investigational agents were tested over a range starting from a high concentration at or near the clinical Cmax and decreasing in half-log increments. If the clinical Cmax for an agent had not been determined, the highest concentration tested was 10 microM, except for SN-38, which was tested at a high concentration of 1 microM.
# Cell Culture. All cells were maintained in an incubator at 37 degrees C and 5% CO2 with 95% humidity. The PDC lines were cultured according to standard operating procedures established by the NCI PDMR (https://pdmr.cancer.gov). Table 3 of the manuscript, lists the cell lines along with the number of the three cell types plated to form the mct-spheroids and media for tumor cell growth. After thawing, all PDC lines, except 997537-175-T-J1-PDC and 415267-285-R-J2-PDC, were cultured in Matrigel-coated flasks prepared with a working solution of 1X Ham's F-12 nutrient mix, without supplementation (Thermo Fisher Scientific, cat. 11765054), 100 U/mL penicillin-streptomycin (Thermo Fisher Scientific, cat. 15140122), and 2.5% Matrigel (Corning Inc., Corning, NY, cat. 354248) for the first three passages. The two PDC lines 997537-175-T-J1-PDC and 415267-285-R-J2-PDC were cultured on uncoated flasks. The 857933-349-R-J2-PDC line was cultured in 6C/Colon 1B media containing advanced DMEM/F-12 (Thermo Fisher Scientific, cat. 12634028), 10 mM HEPES (Thermo Fisher Scientific, cat. 15630080), 1X GlutaMAX supplement (Thermo Fisher Scientific, cat. 35050061), 0.1 mg/mL primocin (InvivoGen, San Diego, CA, cat. ant-pm-2), 10% defined fetal bovine serum, heat inactivated (HyClone Laboratories Inc., Logan, UT, cat. SH30070.03HI), 50% L-WRN conditioned media (ATCC, cat. CRL-3276), 1.25 mM N-Acetyl-L-cysteine (Sigma-Aldrich, cat. A9165), 10 mM nicotinamide (Sigma-Aldrich, cat. N0636), 1X B-27 supplement (Thermo Fisher Scientific, cat. 17504044), 1X N-2 supplement (Thermo Fisher Scientific, cat. […]
# 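Note: spheroids exposed to compounds for seven days.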
# 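Throughout, for viability, T/C: 100% = DMSO vehicle control viability.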
structure (smiles),measurement,setting,value
CC(C)n1c(=O)n(C)c2cnc3cc(F)c(-c4ccc(OCCCN5CCCCC5)nc4)cc3c21 + Cc1cccc(N(C)C(=O)C2C(O)CCN2c2nc(C)cc(C(F)(F)F)c2C#N)c1,IC50,second compound 0.0316 µM,> 10 µM
same,IC50,second compound 0.1 µM,> 10 µM
same,IC50,second compound 0.316 µM,> 10 µM
same,IC50,second compound 1 µM,> 10 µM
same,IC50,second compound 3.16 µM,> 10 µM
same,IC50,second compound 10 µM,> 10 µM
same,"viability, T/C","second compound 0.0316 µM, first compound 0.0316 µM",97.5%
same,"viability, T/C","second compound 0.0316 µM, first compound 0.1 µM",98.8%
same,"viability, T/C","second compound 0.0316 µM, first compound 0.316 µM",101%
same,"viability, T/C","second compound 0.0316 µM, first compound 1 µM",111%
same,"viability, T/C","second compound 0.0316 µM, first compound 3.16 µM",98.3%
same,"viability, T/C","second compound 0.0316 µM, first compound 10 µM",75.8%
same,"viability, T/C","second compound 0.1 µM, first compound 0.0316 µM",99.3%
same,"viability, T/C","second compound 0.1 µM, first compound 0.1 µM",102%
same,"viability, T/C","second compound 0.1 µM, first compound 0.316 µM",110%
same,"viability, T/C","second compound 0.1 µM, first compound 1 µM",108%
same,"viability, T/C","second compound 0.1 µM, first compound 3.16 µM",96.8%
same,"viability, T/C","second compound 0.1 µM, first compound 10 µM",70.3%
same,"viability, T/C","second compound 0.316 µM, first compound 0.0316 µM",104%
same,"viability, T/C","second compound 0.316 µM, first compound 0.1 µM",101%
same,"viability, T/C","second compound 0.316 µM, first compound 0.316 µM",106%
same,"viability, T/C","second compound 0.316 µM, first compound 1 µM",113%
same,"viability, T/C","second compound 0.316 µM, first compound 3.16 µM",92.7%
same,"viability, T/C","second compound 0.316 µM, first compound 10 µM",68.7%
same,"viability, T/C","second compound 1 µM, first compound 0.0316 µM",101%
same,"viability, T/C","second compound 1 µM, first compound 0.1 µM",102%
same,"viability, T/C","second compound 1 µM, first compound 0.316 µM",105%
same,"viability, T/C","second compound 1 µM, first compound 1 µM",103%
same,"viability, T/C","second compound 1 µM, first compound 3.16 µM",102%
same,"viability, T/C","second compound 1 µM, first compound 10 µM",67.2%
same,"viability, T/C","second compound 3.16 µM, first compound 0.0316 µM",98.5%
same,"viability, T/C","second compound 3.16 µM, first compound 0.1 µM",100%
same,"viability, T/C","second compound 3.16 µM, first compound 0.316 µM",102%
same,"viability, T/C","second compound 3.16 µM, first compound 1 µM",98.5%
same,"viability, T/C","second compound 3.16 µM, first compound 3.16 µM",98.2%
same,"viability, T/C","second compound 3.16 µM, first compound 10 µM",67%
same,"viability, T/C","second compound 10 µM, first compound 0.0316 µM",93.5%
same,"viability, T/C","second compound 10 µM, first compound 0.1 µM",99.9%
same,"viability, T/C","second compound 10 µM, first compound 0.316 µM",99.6%
same,"viability, T/C","second compound 10 µM, first compound 1 µM",101%
same,"viability, T/C","second compound 10 µM, first compound 3.16 µM",100%
same,"viability, T/C","second compound 10 µM, first compound 10 µM",55.7%
